Data on 37 compounds can be found in US10233173B2, “Substituted 1,2,3-triazoles as NR2B-selective NMDA modulators” (JANSSEN PHARMACEUTICA NV, priority 2016, dated 2019).

The test addresses human GluN1/GluN2B NMDA receptors (Homo sapiens, UniProt Q05586+Q13224). Put plainly: Cell-based calcium flux (FLIPR) assay on cloned human NR1/NR2B ion channels expressed in mammalian cells. The settings on record: standard assay; glutamate at ~EC80; FLIPR calcium flux. Summed up: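 Calcium influx followed by FLIPR fluorescence after 5 min compound exposure and a further 5 min co-agonist challenge: 10 μM glycine with glutamate at ~EC80 (standard) or EC40 (HTS).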
In general terms: Calcium flux is commonly read through the fluorescence of an indicator in the cells.

Sequence of human GluN1/GluN2B NMDA receptors (Q13224 27-1484, other chains not shown): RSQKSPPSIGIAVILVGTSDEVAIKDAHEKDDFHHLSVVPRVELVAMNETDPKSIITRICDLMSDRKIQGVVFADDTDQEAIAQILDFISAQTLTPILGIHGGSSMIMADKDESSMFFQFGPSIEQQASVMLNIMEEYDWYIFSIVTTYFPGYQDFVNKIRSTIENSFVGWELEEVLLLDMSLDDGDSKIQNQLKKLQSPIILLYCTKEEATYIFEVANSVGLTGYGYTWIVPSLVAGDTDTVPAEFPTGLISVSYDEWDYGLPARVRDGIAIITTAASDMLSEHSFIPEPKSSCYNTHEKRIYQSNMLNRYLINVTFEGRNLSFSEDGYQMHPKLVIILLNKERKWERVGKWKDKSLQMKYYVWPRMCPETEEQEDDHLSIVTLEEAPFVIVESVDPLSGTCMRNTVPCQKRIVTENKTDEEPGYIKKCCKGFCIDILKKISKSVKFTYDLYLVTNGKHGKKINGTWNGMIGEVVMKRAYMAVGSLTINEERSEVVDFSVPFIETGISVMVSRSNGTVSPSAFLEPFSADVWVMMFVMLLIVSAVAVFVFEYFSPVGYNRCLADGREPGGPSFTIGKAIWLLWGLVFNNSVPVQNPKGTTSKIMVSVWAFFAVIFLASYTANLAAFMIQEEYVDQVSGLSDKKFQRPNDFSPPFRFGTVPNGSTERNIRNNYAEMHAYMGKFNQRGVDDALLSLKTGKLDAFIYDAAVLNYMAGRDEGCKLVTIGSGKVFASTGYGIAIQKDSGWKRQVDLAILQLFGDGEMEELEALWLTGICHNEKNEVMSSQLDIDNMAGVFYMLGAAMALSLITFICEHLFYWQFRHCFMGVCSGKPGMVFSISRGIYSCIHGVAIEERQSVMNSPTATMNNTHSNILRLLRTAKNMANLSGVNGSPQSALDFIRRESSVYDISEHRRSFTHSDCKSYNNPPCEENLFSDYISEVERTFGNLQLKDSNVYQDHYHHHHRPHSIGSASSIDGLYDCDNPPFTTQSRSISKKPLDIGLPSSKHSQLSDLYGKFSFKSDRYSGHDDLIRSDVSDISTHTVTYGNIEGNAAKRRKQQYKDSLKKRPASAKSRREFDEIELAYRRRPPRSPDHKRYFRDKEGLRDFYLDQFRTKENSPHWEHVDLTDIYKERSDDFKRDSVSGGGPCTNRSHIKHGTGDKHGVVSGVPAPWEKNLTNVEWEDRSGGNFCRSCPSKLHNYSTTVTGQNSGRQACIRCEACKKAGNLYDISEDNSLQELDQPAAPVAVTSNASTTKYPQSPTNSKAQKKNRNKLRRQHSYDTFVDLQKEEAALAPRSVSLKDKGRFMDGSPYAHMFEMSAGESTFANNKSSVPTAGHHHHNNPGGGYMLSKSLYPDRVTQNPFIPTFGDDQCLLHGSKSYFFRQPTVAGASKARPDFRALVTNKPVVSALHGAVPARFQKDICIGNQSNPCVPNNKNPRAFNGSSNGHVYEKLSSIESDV

The term IC50 denotes the point on the concentration scale where inhibition reaches its midpoint. On to `CCc1cnc(OCc2cn(-c3ccc(F)cc3C)nn2)nc1` [Example 491, 5-Ethyl-2-[[1-(4-fluoro-2-methyl-phenyl)triazol-4-yl]methoxy]pyrimidine], for which the half-inhibitory concentration (IC50) worked out at 1.17 µM.
To `Fc1cnc(OCc2cn(-c3ccc(F)c(OC(F)F)c3)nn2)nc1` [Example 492, 2-[[1-[3-(Difluoromethoxy)-4-fluoro-phenyl]triazol-4-yl]methoxy]-5-fluoro-pyrimidine] belongs 0.026 µM; to `Cc1nc(OCc2cn(-c3ccc(F)c(OC(F)F)c3)nn2)ncc1F` [Example 493, 2-[[1-[3-(Difluoromethoxy)-4-fluoro-phenyl]triazol-4-yl]methoxy]-5-fluoro-4-methyl-pyrimidine], 0.004 µM; to `CCc1ccnc(OCc2cn(-c3ccc(F)c(OC(F)F)c3)nn2)n1` [Example 495, 2-f[[1-[3-(Difluoromethoxy)-4-fluoro-phenyl]triazol-4-yl]methoxy]-4-ethyl-pyrimidine], 0.01 µM.
To `CC(C)c1ccnc(OCc2cn(-c3ccc(F)c(OC(F)F)c3)nn2)n1` [Example 496, 2-[[1-[3-(Difluoromethoxy)-4-fluoro-phenyl]triazol-4-yl]methoxy]-4-isopropyl-pyrimidine] belongs 0.114 µM.
For `COc1ccnc(OCc2cn(-c3ccc(F)c(OC(F)F)c3)nn2)n1` [Example 497, 2-[[1-[3-(Difluoromethoxy)-4-fluoro-phenyl]triazol-4-yl]methoxy]-4-methoxy-pyrimidine] the value was 0.028 µM; for `OCc1ccnc(OCc2cn(-c3ccc(F)c(OC(F)F)c3)nn2)n1` [Example 498, [2-[[1-[3-(Difluoromethoxy)-4-fluoro-phenyl]triazol-4-yl]methoxy]pyrimidin-4-yl]methanol], 0.019 µM; for `COCc1ccnc(OCc2cn(-c3ccc(F)c(OC(F)F)c3)nn2)n1` [Example 499, 2-[[1-[3-(Difluoromethoxy)-4-fluoro-phenyl]triazol-4-yl]methoxy]-4-(methoxymethyl)pyrimidine], 0.016 µM.
Take `CC(C)(O)c1cnc(OCc2cn(-c3ccc(F)c(OC(F)F)c3)nn2)nc1` [Example 500, 2-[2-[[1-[3-(Difluoromethoxy)-4-fluoro-phenyl]triazol-4-yl]methoxy]pyrimidin-5-yl]propan-2-ol]: the IC50 is 0.068 µM.
To `Nc1ccnc(OCc2cn(-c3ccc(F)c(OC(F)F)c3)nn2)n1` [Example 501, 2-[[1-[3-(Difluoromethoxy)-4-fluoro-phenyl]triazol-4-yl]methoxy]pyrimidin-4-amine] belongs 0.052 µM; to `Nc1cnc(OCc2cn(-c3ccc(F)c(OC(F)F)c3)nn2)nc1` [Example 502, 2-[[1-[3-(Difluoromethoxy)-4-fluoro-phenyl]triazol-4-yl]methoxy]pyrimidin-5-amine], 0.136 µM; to `CNc1ccnc(OCc2cn(-c3ccc(F)c(OC(F)F)c3)nn2)n1` [Example 503, 2-[[1-[3-(Difluoromethoxy)-4-fluoro-phenyl]triazol-4-yl]methoxy]-N-methyl-pyrimidin-4-amine], 0.008 µM.
To `CCNc1ccnc(OCc2cn(-c3ccc(F)c(OC(F)F)c3)nn2)n1` [Example 504, 2-((1-(3-(Difluoromethoxy)-4-fluorophenyl)-1H-1,2,3-triazol-4-yl)methoxy)-N-ethylpyrimidin-4-amine] belongs 0.007 µM; to `CN(C)c1ccnc(OCc2cn(-c3ccc(F)c(OC(F)F)c3)nn2)n1` [Example 505, 2-[[1-[3-(Difluoromethoxy)-4-fluoro-phenyl]triazol-4-yl]methoxy]-N,N-dimethyl-pyrimidin-4-amine], 0.007 µM; to `Fc1ccc(-n2cc(COc3nccc(-c4ccccc4)n3)nn2)cc1OC(F)F` [Example 506, 2-[[1-[3-(Difluoromethoxy)-4-fluoro-phenyl]triazol-4-yl]methoxy]-4-phenyl-pyrimidine], 9.75 µM.
To `Fc1ccc(-n2cc(COc3ncc(N4CC(F)C4)cn3)nn2)cc1OC(F)F` [Example 507, 2-[[1-[3-(Difluoromethoxy)-4-fluoro-phenyl]triazol-4-yl]methoxy]-5-(3-fluoroazetidin-1-yl)pyrimidine] belongs 0.008 µM; to `Fc1ccc(-n2cc(COc3ncc(N4CC(F)(F)C4)cn3)nn2)cc1OC(F)F` [Example 508, 5-(3,3-Difluoroazetidin-1-yl)-2-[[1-[3-(difluoromethoxy)-4-fluoro-phenyl]triazol-4-yl]methoxy]pyrimidine], 0.019 µM.
In the case of `Fc1ccc(-n2cc(COc3nccc(N4CC(F)C4)n3)nn2)cc1OC(F)F` [Example 510, 2-[[1-[3-(Difluoromethoxy)-4-fluoro-phenyl]triazol-4-yl]methoxy]-4-(3-fluoroazetidin-1-yl)pyrimidine], the IC50 was determined as 0.025 µM.
On to `Fc1ccc(-n2cc(COc3nccc(N4CC(F)(F)C4)n3)nn2)cc1OC(F)F` [Example 511, 4-(3,3-Difluoroazetidin-1-yl)-2-[[1-[3-(difluoromethoxy)-4-fluoro-phenyl]triazol-4-yl]methoxy]pyrimidine], for which the IC50 was determined as 0.041 µM.
`Fc1ccc(-n2cc(COc3nccc(N4CC[C@@H](F)C4)n3)nn2)cc1OC(F)F` [Example 512, (R)-2-[[1-[3-(Difluoromethoxy)-4-fluoro-phenyl]triazol-4-yl]methoxy]-4-[(3R)-3-fluoropyrrolidin-1-yl]pyrimidine]: the IC50 was found to be 0.308 µM.
For `Cc1nc(OCc2cn(-c3ccc(F)c(OC(F)F)c3)nn2)ncc1Cl` [Example 513, 5-Chloro-2-[[1-[3-(difluoromethoxy)-4-fluoro-phenyl]triazol-4-yl]methoxy]-4-methyl-pyrimidine] the value was 0.004 µM.
To `Cc1cnc(OCc2cn(-c3ccc(F)c(OC(F)F)c3)nn2)nc1N` [Example 514, 2-[[1-[3-(Difluoromethoxy)-4-fluoro-phenyl]triazol-4-yl]methoxy]-5-methyl-pyrimidin-4-amine] belongs 0.005 µM; to `CNc1nc(OCc2cn(-c3ccc(F)c(OC(F)F)c3)nn2)ncc1C` [Example 515, 2-[[1-[3-(Difluoromethoxy)-4-fluoro-phenyl]triazol-4-yl]methoxy]-N,5-dimethyl-pyrimidin-4-amine], 0.099 µM.
To `Cc1cnc(OCc2cn(-c3ccc(F)c(OC(F)F)c3)nn2)nc1N(C)C` [Example 516, 2-[[1-[3-(Difluoromethoxy)-4-fluoro-phenyl]triazol-4-yl]methoxy]-N,N,5-trimethyl-pyrimidin-4-amine] belongs 0.017 µM; to `Fc1ccc(-n2cc(COc3ncc(F)c(NCC(F)F)n3)nn2)cc1OC(F)F` [Example 517, N-(2,2-Difluoroethyl)-2-[[1-[3-(difluoromethoxy)-4-fluoro-phenyl]triazol-4-yl]methoxy]-5-fluoro-pyrimidin-4-amine], 0.912 µM.
`CNc1nc(OCc2cn(-c3ccc(F)c(OC(F)F)c3)nn2)ncc1F` [Example 518, 2-[[1-[3-(Difluoromethoxy)-4-fluoro-phenyl]triazol-4-yl]methoxy]-5-fluoro-N-methyl-pyrimidin-4-amine]: the IC50 stood at 0.092 µM.
As to `Fc1ccc(-n2cc(COc3ncc(F)c(NC4CC4)n3)nn2)cc1OC(F)F` [Example 519, N-Cyclopropyl-2-((1-(3-(difluoromethoxy)-4-fluorophenyl)-1H-1,2,3-triazol-4-yl)methoxy)-5-fluoropyrimidin-4-amine], the IC50 worked out at 0.204 µM.
To `CNCc1ccnc(OCc2cn(-c3ccc(F)c(OC(F)F)c3)nn2)n1` [Example 520, 1-(2-((1-(3-(Difluoromethoxy)-4-fluorophenyl)-1H-1,2,3-triazol-4-yl)methoxy)pyrimidin-4-yl)-N-methylmethanamine] belongs 0.672 µM.
To `Cc1ccc(-n2cc(COc3ncc(C)c(N)n3)nn2)cc1OC(F)F` [Example 521, 2-[[1-[3-(Difluoromethoxy)-4-methyl-phenyl]triazol-4-yl]methoxy]-5-methyl-pyrimidin-4-amine] belongs 0.021 µM.
For `CC(=O)c1cnc(OCc2cn(-c3ccc(C)c(OC(F)F)c3)nn2)nc1` [Example 522, 1-[2-[[1-[3-(Difluoromethoxy)-4-methyl-phenyl]triazol-4-yl]methoxy]pyrimidin-5-yl]ethanone] the value was 0.093 µM.
`Cc1ccnc(OCc2cn(-c3ccc(C)c(OC(F)F)c3)nn2)n1` [Example 523, 2-[[1-[3-(Difluoromethoxy)-4-methyl-phenyl]triazol-4-yl]methoxy]-4-methyl-pyrimidine]: the IC50 was determined as 0.114 µM.
Regarding `Cc1cnc(OCc2cn(-c3ccc(C)c(OC(F)F)c3)nn2)nc1` [Example 524, 2-[[1-[3-(Difluoromethoxy)-4-methyl-phenyl]triazol-4-yl]methoxy]-5-methyl-pyrimidine], the IC50 turned out to be 0.028 µM.
To `Cc1ccc(-n2cc(COc3ncc(Br)cn3)nn2)cc1OC(F)F` [Example 525, 5-Bromo-2-[[1-[3-(difluoromethoxy)-4-methyl-phenyl]triazol-4-yl]methoxy]pyrimidine] belongs 0.04 µM.
For `Cc1ccc(-n2cc(COc3ncc(C(C)(C)O)cn3)nn2)cc1OC(F)F` [Example 526, 2-[2-[[1-[3-(Difluoromethoxy)-4-methyl-phenyl]triazol-4-yl]methoxy]pyrimidin-5-yl]propan-2-ol] the value was 0.425 µM.
To `COCc1ccnc(OCc2cn(-c3ccc(C)c(OC(F)F)c3)nn2)n1` [Example 527, 2-[[1-[3-(Difluoromethoxy)-4-methyl-phenyl]triazol-4-yl]methoxy]-4-(methoxymethyl)pyrimidine] belongs 0.132 µM; to `Cc1cnc(OCc2nnn(-c3cccc(C(F)F)c3)c2C)nc1C` [Example 528, 2-[[1-[3-(Difluoromethyl)phenyl]-5-methyl-triazol-4-yl]methoxy]-4,5-dimethyl-pyrimidine], 0.752 µM; to `Cc1c(COc2ncc(Cl)cn2)nnn1-c1cccc(C(F)F)c1` [Example 529, 5-Chloro-2-[[1-[3-(difluoromethyl)phenyl]-5-methyl-triazol-4-yl]methoxy]pyrimidine], 1.32 µM.
